Experimental data from the supplement of paper PMC13380429.

Legend:
Settings in all cases: 72 h
HepG2 [1] = experiment: cell viability relative to DMSO; higher = less toxic
U2OS [2] = experiment: as above
Caco-2 [3] = experiment: as above
Vero E6 [4] = experiment: as above
Calu-3 [5] = experiment: as above
HepG2 [6] = experiment: relative viability EC50 (midpoint between 100% and the lowest measured viability); higher = less toxic
U2OS [7] = experiment: as above
Caco-2 [8] = experiment: as above
Vero E6 [9] = experiment: as above
Calu-3 [10] = experiment: as above
HepG2 [11] = experiment: drug sensitivity score (DSS) for viability; higher = more toxic; extreme values may be limits of the assay
U2OS [12] = experiment: as above
Caco-2 [13] = experiment: as above
Vero E6 [14] = experiment: as above
Calu-3 [15] = experiment: as above

Row | Compound | cell viability (HepG2 [1]; 1 nM) | cell viability (HepG2 [1]; 10 nM) | cell viability (HepG2 [1]; 100 nM) | cell viability (HepG2 [1]; 1000 nM) | cell viability (HepG2 [1]; 10000 nM) | cell viability (U2OS [2]; 1 nM) | cell viability (U2OS [2]; 10 nM) | cell viability (U2OS [2]; 100 nM) | cell viability (U2OS [2]; 1000 nM) | cell viability (U2OS [2]; 10000 nM) | cell viability (Caco-2 [3]; 1 nM) | cell viability (Caco-2 [3]; 10 nM) | cell viability (Caco-2 [3]; 100 nM) | cell viability (Caco-2 [3]; 1000 nM) | cell viability (Caco-2 [3]; 10000 nM) | cell viability (Vero E6 [4]; 1 nM) | cell viability (Vero E6 [4]; 10 nM) | cell viability (Vero E6 [4]; 100 nM) | cell viability (Vero E6 [4]; 1000 nM) | cell viability (Vero E6 [4]; 10000 nM) | cell viability (Calu-3 [5]; 1 nM) | cell viability (Calu-3 [5]; 10 nM) | cell viability (Calu-3 [5]; 100 nM) | cell viability (Calu-3 [5]; 1000 nM) | cell viability (Calu-3 [5]; 10000 nM) | relative viability EC50 (HepG2 [6]) | relative viability EC50 (U2OS [7]) | relative viability EC50 (Caco-2 [8]) | relative viability EC50 (Vero E6 [9]) | relative viability EC50 (Calu-3 [10]) | drug sensitivity score (HepG2 [11]) | drug sensitivity score (U2OS [12]) | drug sensitivity score (Caco-2 [13]) | drug sensitivity score (Vero E6 [14]) | drug sensitivity score (Calu-3 [15])
1 | O=C(CO)[C@@H](O)[C@@H](O)[C@H](O)CO [tagatose] | 101% | 91.6% | 97.6% | 94.9% | 106% | 89.1% | 95.3% | 92.7% | 102% | 107% | 98.5% | 94.4% | 103% | 106% | 99.3% | 93.7% | 94.5% | 92.1% | 85.3% | 110% | 98.4% | 99.6% | 99.7% | 97% | 102% | > 10 µM | > 10 µM | > 10 µM | > 10 µM | > 10 µM | 0 | 0 | 0 | 0 | 0
2 | C=CCNC1=C2C[C@@H](C)C[C@H](OC)[C@H](O)[C@@H](C)/C=C(\C)[C@H](OC(N)=O)[C@@H](OC)/C=C\C=C(/C)C(=O)NC(=CC1=O)C2=O [tanespimycin] | 113% | 80.2% | 1.9% | 1.3% | 2.2% | 101% | 102% | 73.2% | 4.8% | 1.8% | 93.6% | 98.8% | 101% | 71.8% | 29.2% | 108% | 100% | 104% | 51.4% | 26.5% | 108% | 105% | 83.3% | 40.2% | 38.2% | 0.0174 µM | 0.164 µM | 1.18 µM | 0.768 µM | 0.161 µM | 33.3 | 21 | 7.7 | 9.8 | 13.5
3 | CNC(=N)NCCC[C@H](N)C(=O)O [targinine] | 94.1% | 103% | 96.9% | 98.6% | 96.3% | 105% | 96.9% | 101% | 101% | 102% | 98.1% | 98% | 101% | 96.8% | 96% | 96.3% | 98.1% | 95.9% | 99.6% | 81.3% | 96.7% | 96.9% | 96.8% | 111% | 99.2% | > 10 µM | > 10 µM | > 10 µM | > 10 µM | > 10 µM | 0 | 0 | 0 | 0.5 | 0
4 | CCOC(=O)Nc1ccc2c(c1)N(C(=O)CN(C)C)c1ccccc1CC2 [tiracizine] | 106% | 95.4% | 111% | 87.6% | 102% | 99.9% | 104% | 96.5% | 101% | 99.7% | 106% | 105% | 105% | 98.9% | 100% | 99.8% | 99.2% | 97.3% | 97.9% | 97.8% | 107% | 103% | 87% | 85% | 106% | > 10 µM | > 10 µM | > 10 µM | > 10 µM | > 10 µM | 0 | 0 | 0 | 0 | 0
5 | CCn1c(=O)n(C2=C(CO)CN(CC3CCCCCCC3)CC2)c2ccccc21 [trap-101] | 97.8% | 96.7% | 91.5% | 96.5% | 98% | 98.2% | 101% | 97.4% | 98.8% | 93.8% | 102% | 89.9% | 96.7% | 93.6% | 83.5% | 98% | 96.8% | 95.6% | 96.3% | 98.9% | 99.6% | 106% | 94.5% | 104% | 92.6% | > 10 µM | > 10 µM | > 10 µM | > 10 µM | > 10 µM | 0 | 0 | 0.3 | 0 | 0
6 | Oc1cc(Cl)ccc1Oc1ccc(Cl)cc1Cl [triclosan] | 105% | 99.3% | 102% | 93.8% | 113% | 98.7% | 96.5% | 98.3% | 97.9% | 99.3% | 105% | 102% | 94.5% | 95.6% | 126% | 97% | 104% | 106% | 112% | 95.3% | 97.7% | 92.3% | 106% | 101% | 107% | > 10 µM | > 10 µM | > 10 µM | > 10 µM | > 10 µM | 0 | 0 | 0 | 0 | 0
7 | COc1cc(C(=O)N2CCOCC2)cc(OC)c1OC [trimetozine] | 93.8% | 92.9% | 102% | 95.3% | 98.8% | 95.8% | 98.3% | 96.8% | 99.9% | 96.6% | 95.4% | 105% | 86.4% | 108% | 96.6% | 106% | 107% | 108% | 94.8% | 99.9% | 98.9% | 94.8% | 101% | 92.1% | 102% | > 10 µM | > 10 µM | > 10 µM | > 10 µM | > 10 µM | 0 | 0 | 0 | 0 | 0
